According to US12065416B2, “cGAS antagonist compounds” (IMMUNESENSOR THERAPEUTICS, INC., priority 2016, dated 2024):

Columns and labels:
RIG-I-MAVS pathway = assay: Specificity assay: ISRE reporter THP1 cells infected with Sendai Virus (SeV); format: cell-based; conditions: Homo sapiens, THP-1; ISRE-Gaussia luciferase reporter THP1 cells infected with Sendai Virus (SeV) at 50 Unit/mL
Experimental: (§1) A reporter THP1 cell line harboring a gene encoding Gaussia Luciferase under the control of 5 tandem repeats of interferon-stimulated response elements (ISRE) was used to test inhibition of cGAS activity by synthetic compounds in human cells. These cells were plated on 96-well plates at 0.3×10^6/well and incubated with various concentrations of compounds or DMSO for 5 min, followed by transfection of 2 μg/mL of ISD (Interferon Stimulatory DNA, a 45 bp DNA oligo) or mock transfected using lipofectamine 2000 (Life Technology) method, according to manufacturer's instructions. 16 hours later, 15 μL of the media from each well is transferred to a new plate, 50 μL of solution containing 50 mM Hepes-NaOH, 50 mM NaCl, 10 mM EDTA, 1 μM of coeleanterazine was added to each well and luminescence was measured immediately. Fold increase in luminescence compared to mock transfection is plotted against concentrations of each compound, and IC50 is calculated using Graphpad. To evaluate the specificity of a compound, the same procedure was performed except that cells were transfected with 2 μg/mL poly(I:C) or infected with Sendai Virus (SeV) at 50 Unit/mL, which are known to activate the RIG-I-MAVS pathway. A specific inhibitory compound should inhibit interferon induction by DNA but have minimal effect on poly(I:C) or Sendai virus induced interferon reporter gene expression.

[1] = tested on: cGAS activity in THP1 cells; assay: Cellular assay: ISRE-Gaussia luciferase reporter THP1 cells transfected with ISD (Interferon Stimulatory DNA); format: cell-based; conditions: Homo sapiens, THP-1; ISRE-Gaussia luciferase reporter THP1 cells transfected with 2 μg/mL ISD, 16 hours; read-out: THP1-ISD (Inhibition of cGAS activity in THP1 cells, IC50)
Experimental: as §1

[2] = target: T1, recombinant cGAS (aa147-522) (Homo sapiens, UniProt Q8N884); assay: In vitro assay for inhibition of cGAS activity (ATP consumption, Kinase Glo); format: biochemical; conditions: 37° C. 20 minutes, read-out: Activity (Inhibition of cGAS enzyme activity in vitro, IC50)
T1 construct: recombinant cGAS (aa147-522); His6-SUMO (N, cleaved yes); made in house; host or cells: E. coli BL21/pLys
How it was run: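 Human cGAS (aa147-522) at 1.5 ng/μL incubated with serially diluted compound at 37° C for 20 min; remaining ATP read by Kinase Glo luminescence. IC50 from percent ATP consumption plotted against log compound concentration.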

T1 sequence (Q8N884 147-522): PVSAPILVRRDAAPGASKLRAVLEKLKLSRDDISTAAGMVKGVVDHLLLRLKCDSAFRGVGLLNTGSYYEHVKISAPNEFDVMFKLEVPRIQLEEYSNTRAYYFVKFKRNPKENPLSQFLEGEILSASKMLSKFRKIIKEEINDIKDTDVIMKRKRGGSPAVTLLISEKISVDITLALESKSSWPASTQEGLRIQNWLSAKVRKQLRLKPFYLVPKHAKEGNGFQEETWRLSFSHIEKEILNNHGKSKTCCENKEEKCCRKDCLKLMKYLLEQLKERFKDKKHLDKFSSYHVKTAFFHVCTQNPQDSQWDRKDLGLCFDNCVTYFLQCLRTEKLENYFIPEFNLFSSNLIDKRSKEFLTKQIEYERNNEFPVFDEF

SMILES	IC50 (RIG-I-MAVS pathway) [µM]	IC50 [1] [µM]	IC50 [2] [µM]
CC(Oc1cc(/C=C2\SC(=O)N(C)C2=O)c(Br)c(F)c1O)C(O)c1cnc(N)nc1 (stereo not drawn) [ExB4]	≥ 10	≥ 10	≤ 0.5
[2H]C([2H])(Oc1cc(/C=C2\SC(=O)N(C)C2=O)c(Br)cc1O)c1cnc(N)nc1 [ExB35]	≥ 10	≤ 2.5	≤ 0.5
CN1C(=O)S/C(=C\c2cc(OCc3cnc(N)nc3C3CC3)c(O)cc2Br)C1=O [Ex171]	≥ 10	2.5 to 10	≤ 0.5
CC(C)C(=O)N1CCC(COc2cc(/C=C3\SC(=O)N(C)C3=O)c(Br)cc2O)CC1 [Ex87]	≥ 10	2.5 to 10	0.5 to 10
CN1C(=O)S/C(=C\c2cc(OCc3ccc(N)nc3)c(O)cc2Br)C1=O [Ex131]	2.5 to 10	2.5 to 10	0.5 to 10
CN1C(=O)S/C(=C\c2cc(OCc3cnc(NCc4cccnc4)nc3)c(O)cc2Br)C1=O [Ex156]	≥ 10	2.5 to 10	≤ 0.5
O=C1/C(=C/c2cc(OCc3cnc(NCCO)nc3)c(O)cc2Br)Sc2ncccc21 [Ex196]	≥ 10	≤ 2.5	≤ 0.5
CN1C(=O)S/C(=C\c2cc(OCc3cn(-c4ccncc4)nn3)c(O)cc2Br)C1=O [Ex233]	≥ 10	2.5 to 10	≥ 10
CN1C(=O)S/C(=C\c2cc(OCc3cnc(N4CCNCC4)nc3)c(O)cc2Br)C1=O [Ex165]	≥ 10	2.5 to 10	≤ 0.5
CCC(Oc1cc(/C=C2\SC(=O)N(C)C2=O)c(Br)c(F)c1O)c1cnc(N)nc1 (stereo not drawn) [ExB44]	≥ 10	2.5 to 10	≤ 0.5
CN1C(=O)S/C(=C\c2cc(OCC3CCCCC3)c(O)cc2Br)C1=O [Ex86]	2.5 to 10	2.5 to 10	0.5 to 10
